Patent US20210147507A1, “METHODS TO AUGMENT OR ALTER SIGNAL TRANSDUCTION” (Bellicum Pharmaceuticals, Inc., priority 2017, published 2021)
Where two headings read alike, the source gives them in different places.

What was measured:
[1] = test system: cells; assay: Rimiducid amount needed in vitro for effective signaling of cells; assay type: cell-based
Procedure: This equates to 14-140 μg/L or ˜0.014-0.14 mg/kg ([…]). The dosage may vary according to the application, and may, in certain examples, be more in the range of 0.1-10 nM, or in the range of 50-150 nM, 10-200 nM, 75-125 nM, 100-500 nM, 100-600 nM, 100-700 nM, 100-800 nM, or 100-900 nM.

[2] = test system: HPAC pancreatic cancer cells; assay: T cell anti-tumor assay: PSCA CAR-T cells with iM-X cocultured with HPAC-RFP cells (IncuCyte); assay type: cell-based, human; settings: 1 nM
Procedure: The HPAC PSCA^+ tumor cells were stably labeled with nuclear-localized RFP protein using the NucLight™ Red Lentivirus Reagent (Essen Bioscience, 4625). To set up the coculture, 4000 HPAC-RFP cells were seeded per well of 96-well plates in 100 μl of CTL medium without IL-2 for at least 4 hours to allow tumor cells to adhere. After transduction with the appropriate retrovirus and having been allowed to rest for at least 7 days in culture, T were seeded according to various E:T ratios in the HPAC-RFP-containing 96-well plates. […] Each plate was set up in duplicates, one plate to monitor with the IncuCyte and one plate for supernatant collection for ELISA assay on day 2. The plates were centrifuged for 5 min at 400×g and placed inside the IncuCyte (Dual Color Model 4459) to monitor red fluorescence (and green fluorescence if T cells were labeled with GFP-Ffluc) every 2-3 hours for a total of 7 days at 10× objective. Image analysis was performed using the “HPAC-RFP-_TcellsGFP_10×_MLD” processing definition. On day 7, HPAC-RFP cells were analyzed using the “Red Object Count (1/well)” metric. Also on day 7, 0 or 10 nM of suicide drug were added to each well of the coculture and placed back in the IncuCyte to monitor T cell elimination. On day 8, Tcell-GFP cells were analyzed using the “Total Green Object Integrated Intensity” metric. […]

[3] = test system: CD3+ΔCD19+ iCasp9 T cells / GvHD; assay: Phase I clinical trial of allodepleted T cells transduced with iCasp9 after haploidentical stem cell transplantation; assay type: in vivo, human
From the text: This example presents results of a phase 1 clinical trial using an alternative suicide gene strategy. Briefly, donor peripheral blood mononuclear cells were co-cultured with recipient irradiated EBV-transformed lymphoblastoid cells (40:1) for 72 hrs., allodepleted with a CD25 immunotoxin and then transduced with a retroviral supernatant carrying the iCasp9 suicide gene and a selection marker (ΔCD19); ΔCD19 allowed enrichment to >90% purity via immunomagnetic selection.
Patients developing grade 1 GvHD were treated with 0.4 mg/kg AP1903 as a 2-hour infusion.
Three patients received iCasp9^+ T cells after haplo-CD34^+ stem cell transplantation (SCT), at dose levels between about 1×10^6 to about 3×10^6 cells/kg.

[4] = molecular target: wild-type phenylalanine 36 FKBP12 (Homo sapiens, UniProt P62942); settings: cited from earlier work
Chain of wild-type phenylalanine 36 FKBP12 (P62942 whole entry): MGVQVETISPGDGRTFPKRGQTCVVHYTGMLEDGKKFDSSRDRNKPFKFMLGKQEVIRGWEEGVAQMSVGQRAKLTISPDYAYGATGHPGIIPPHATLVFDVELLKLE

[5] = cited from earlier work; for safety and tolerability (in words): healthy volunteers

## CC[C@H](C(=O)N1CCCC[C@H]1C(=O)O[C@H](CCc1ccc(OC)c(OC)c1)c1cccc(OCC(=O)NCCNC(=O)COc2cccc([C@@H](CCc3ccc(OC)c(OC)c3)OC(=O)[C@@H]3CCCCN3C(=O)[C@@H](CC)c3cc(OC)c(OC)c(OC)c3)c2)c1)c1cc(OC)c(OC)c(OC)c1 (relative stereo) [rimiducid, 2-Piperidinecarboxylic acid, 1-[(2S)-1-oxo-2-(3,4,5-trimethoxyphenyl)butyl]-, 1,2-ethanediylbis [imino(2-oxo-2,1-ethanediyl)oxy-3,1-phenylene[(1R)-3-(3,4-Dimethoxyphenyl)propylidene]] ester, [2S-[1(R*),2R*[S*[S*[1(R*),2R1]]]]]-(9C1)]
[1]
  amount needed for effective signaling, converted: 0.014 to 0.14 mg/kg
  amount needed in vitro for effective signaling of cells: 10 to 100 nM
[1]; MW 1412 Da
  amount needed for effective signaling, converted: 14 to 140 µg/L
[2]; Not Transduced (NT) primary T cells
  effect on cell growth of tumor or T cell: did not affect the cell growth
[2]; T cells expressing the inducible chimeric signaling polypeptide
  effect on T cell efficacy: augmented T cell efficacy
[3]; after rimiducid administration
  time to resolution of skin and liver GvHD: ≤ 24 h
[3]; within 30 minutes of infusion, two patients with grade I/II GvHD
  ablation of CD3+ΔCD19+ cells: > 90%
[3]; within 24 hours
  further reduction of CD3+ΔCD19+ cells: further log reduction
[4]
  binding to FKBP12 (in words): not able to bind
[5]; 1.0 mg/kg
  duration of the adverse event: 32 min
  onset of the adverse event after start of infusion: 3 min
[5]; 0.01-1.0 mg/kg dose range, infused IV over 2 hours
  mean Cmax: 10 to 1275 ng/mL
[5]; 0.01-1.0 mg/kg
  plasma levels versus dose: directly proportional to dose
  safety and tolerability (in words): No significant adverse effects
[5]; 1 volunteer at 1.0 mg/kg
  adverse event considered possibly related: vasodilatation
[5]; 0.5 hours post-dose
  plasma level, % of maximal concentration: 18%
[5]; 0.5 hours post-dose, listed as Rimiducid
  plasma level, % of maximal concentration: approximately 18%
[5]; 2 hours post-dose
  plasma level, % of maximal concentration: ~7%
[5]; 10 hours post-dose
  plasma level, % of maximal concentration: ~1%
[5]; Phase I study
  well-tolerated dose: up to 1 mg/kg
[5]; following each treatment
  incidence of adverse events: very low
[5]; 0.01-1.0 mg/kg, listed as AP1903
  safety and tolerability (in words): No serious adverse events
[5]; human, in vivo
  pharmacokinetic profile (in words): favorable pharmacokinetic profile
